Test results published in the supplement of paper PMC10307832.

Columns and labels:
Assay in all cases: relative viability (nuclei count vs DMSO), 5 days (fraction); higher = more cells survive
KIN001-266 + Navitoclax = compound: CCN1CCC(CC1)N2C=C(N=N2)CNC3=CC4=C(C(=CN=C4C(=C3)Cl)C#N)NC5=CC(=C(C=C5)F)Cl [KIN001-266] + CC1(C)CCC(c2ccc(Cl)cc2)=C(CN2CCN(c3ccc(C(=O)NS(=O)(=O)c4ccc(N[C@H](CCN5CCOCC5)CSc5ccccc5)c(S(=O)(=O)C(F)(F)F)c4)cc3)CC2)C1 [Navitoclax] (partner 0.5 µM)
Summary of the method: (§1)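 Relative viability was taken as the ratio of nuclei in treated wells to nuclei in vehicle wells. Lung cancer cell lines in 1536-well plates received compounds by pin tool one day after seeding, either one drug alone or a fixed anchor-drug dose plus five library-drug doses (not always all listed) in √10 steps. Nuclei were counted on 4× images after 5 days of treatment, and values are medians of duplicate plates.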

KIN001-266 + Linsitinib = compound: CCN1CCC(CC1)N2C=C(N=N2)CNC3=CC4=C(C(=CN=C4C(=C3)Cl)C#N)NC5=CC(=C(C=C5)F)Cl [KIN001-266] + C[C@]1(O)C[C@@H](c2nc(-c3ccc4ccc(-c5ccccc5)nc4c3)c3c(N)nccn32)C1 [Linsitinib] (partner 1 µM)
Summary of the method: as §1

KIN001-266 + Pemetrexed = compound: CCN1CCC(CC1)N2C=C(N=N2)CNC3=CC4=C(C(=CN=C4C(=C3)Cl)C#N)NC5=CC(=C(C=C5)F)Cl [KIN001-266] + Nc1nc2[nH]cc(CCc3ccc(C(=O)N[C@@H](CCC(=O)O)C(=O)O)cc3)c2c(=O)[nH]1 [Pemetrexed] (partner 0.2 µM)
Summary of the method: as §1

KIN001-266 + Vorinostat = compound: CCN1CCC(CC1)N2C=C(N=N2)CNC3=CC4=C(C(=CN=C4C(=C3)Cl)C#N)NC5=CC(=C(C=C5)F)Cl [KIN001-266] + O=C(CCCCCCC(=O)Nc1ccccc1)NO [Vorinostat] (partner 1 µM)
Summary of the method: as §1

| Cell Line | relative viability (KIN001-266 + Navitoclax; first compound 0.08 µM) | relative viability (KIN001-266 + Navitoclax; first compound 0.253 µM) | relative viability (KIN001-266 + Navitoclax; first compound 0.8 µM) | relative viability (KIN001-266 + Navitoclax; first compound 2.53 µM) | relative viability (KIN001-266 + Navitoclax; first compound 8 µM) | relative viability (KIN001-266 + Linsitinib; first compound 0.08 µM) | relative viability (KIN001-266 + Linsitinib; first compound 0.253 µM) | relative viability (KIN001-266 + Linsitinib; first compound 0.8 µM) | relative viability (KIN001-266 + Linsitinib; first compound 2.53 µM) | relative viability (KIN001-266 + Linsitinib; first compound 8 µM) | relative viability (KIN001-266 + Pemetrexed; first compound 0.08 µM) | relative viability (KIN001-266 + Pemetrexed; first compound 0.253 µM) | relative viability (KIN001-266 + Pemetrexed; first compound 0.8 µM) | relative viability (KIN001-266 + Pemetrexed; first compound 2.53 µM) | relative viability (KIN001-266 + Pemetrexed; first compound 8 µM) | relative viability (KIN001-266 + Vorinostat; first compound 0.08 µM) | relative viability (KIN001-266 + Vorinostat; first compound 0.253 µM) | relative viability (KIN001-266 + Vorinostat; first compound 0.8 µM) | relative viability (KIN001-266 + Vorinostat; first compound 2.53 µM) | relative viability (KIN001-266 + Vorinostat; first compound 8 µM) |
| --- | --- | --- | --- | --- | --- | --- | --- | --- | --- | --- | --- | --- | --- | --- | --- | --- | --- | --- | --- | --- |
| NCI-H2347 | 0.869 | 0.747 | 0.787 | 0.834 | 0.453 | 0.998 | 0.936 | 0.937 | 0.762 | 0.573 | 0.455 | 0.463 | 0.43 | 0.452 | 0.433 | 0.678 | 0.647 | 0.62 | 0.594 | 0.418 |
| NCI-H2405 | 1.02 | 1 | 0.901 | 0.881 | 0.4 | 0.888 | 0.887 | 0.942 | 0.928 | 0.584 | 1.08 | 1.04 | 1.2 | 0.84 | 0.932 | 1.08 | 1.03 | 1.02 | 1.04 | 0.809 |
| NCI-H3122 | 0.968 | 1.09 | 1.01 | 0.998 | 0.769 | 0.979 | 0.97 | 0.996 | 0.958 | 0.96 | 0.206 | 0.2 | 0.198 | 0.197 | 0.214 | 0.966 | 1.13 | 0.992 | 1.06 | 1.02 |
